Molecules are shown by their SMILES.

The term melting point denotes the temperature of the solid-liquid transition. `CCC[C@H]1CC[C@H]([C@H]2CC[C@H](c3ccc(C(C)=O)cc3)CC2)CC1`: the melting point turned out to be 81 °C.

`CC(=O)c1cc(=O)n(CCC(C(=O)NO)N(C)S(=O)(=O)c2ccc(Oc3ccccc3)cc2)c(=O)[nH]1` (centres undefined) displayed a melting point of 167 to 169 °C.

`Cc1ccc(C(=O)Nc2ccc(CN3CCN(C)CC3)c(C(F)(F)F)c2)cc1C#Cc1ccc(NC2CC2)nn1` showed a melting point of 68 to 69 °C.

As to `CCOC(=O)C1(CC(=O)O)C(=O)C=C(OCc2ccccc2)CC1c1ccc(C)cc1` (centres undefined), the melting point was found to be 217 °C.

As for `CCOc1cc2c(cc1OCC)[C@@H]1CCCC[C@@H]1N=C2c1ccc(Cl)nc1` (racemic), the melting point fell in the range of 123 to 126 °C.

With `Cc1ccc(Oc2ccc([N+](=O)[O-])cn2)cc1`, the melting point lay within 80 to 82 °C.

In turn, `Cc1ncc([N+](=O)[O-])n1CCN(CCCC(C)N(CCn1c([N+](=O)[O-])cnc1C)CCn1c([N+](=O)[O-])cnc1C)CCn1c([N+](=O)[O-])cnc1C` (centres undefined) had a melting point of 150 to 151 °C.

Take `N#Cc1c(C(N)=O)nn2c(-c3cccc(C(F)(F)F)c3)ccnc12`: the melting point was in the range of 236 to 238 °C.

`CCCCOc1cccc(C[C@H](NC(=O)c2coc(NS(C)(=O)=O)n2)[C@H](O)CNCc2cccc(CC)c2)c1` had a melting point of 78 to 80 °C.

Molecule `N#Cc1nn(-c2c(Cl)cc(C(F)(F)F)cc2Cl)c(N)c1C=O` showed a melting point of 194 to 197 °C.

Consider `CN1CCN(c2cc(Sc3ccc(Cl)cc3)nc(-c3ccccc3)n2)CC1`, for which the melting point was in the range of 152 to 154 °C.

`O=Cc1coc2c(c1=O)CCc1ccccc1-2` returned a melting point of 153 to 156 °C.

In turn, `OC(C#CCN1CCC(O)(c2ccc(Cl)cc2)CC1)c1ccc(F)cc1` (centres undefined) showed a melting point of 145 to 146 °C.

Consider `O=C(Nc1nc2ccc(Sc3cnc4ccc(-c5cccc(F)c5)cn34)cc2s1)C1CC1`, for which the melting point is over 260 °C.

For `COc1ccc(-c2cnc3c(-c4ccsc4)cnn3c2)cc1`, the melting point was 191 to 193 °C.

In the case of `Cc1nc2nc(SCc3ccccc3)nn2c(Cl)c1Cl`, the melting point was in the range of 103 to 105 °C.

Molecule `CCCn1c(=O)[nH]c2ccc(C(=O)c3nc(-c4cccc(C(=O)O)c4)c4ccccn34)cc2c1=O` gave a melting point of 365 °C.

`CN1C(=O)CC[C@]2(C)c3ccc(NC(=O)c4cccc([N+](=O)[O-])c4)cc3CC[C@@H]12` returned a melting point of 240 to 242 °C.

`CN(C)c1ccc(C(=O)N(CCN2CCC(C(=O)c3ccc(F)cc3)CC2)c2cccnc2)cc1` came in with a melting point of 147 to 152 °C.

`C=CCOC(=O)OCc1ccc(C#N)cc1C(=O)O` showed a melting point of 81 to 83 °C.

For the molecule `O=C(O)c1ccc(Cn2ccn(C3CCc4ccccc4C3)c2=S)cc1` (centres undefined), the melting point fell in the range of 211 to 212 °C.

`Cc1cn(C2CC(ON)C(CO[Si](C)(C)C(C)(C)C)O2)c(=O)[nH]c1=O` (centres undefined) displayed a melting point of 171 °C.

`COCCN(C)Cc1c(-c2ccc(NC(=O)NOC)cc2)sc2c1c(=O)n(-c1ccc3c(c1)OCCO3)c(=O)n2Cc1c(F)cccc1F` returned a melting point of 155 to 156 °C.

Consider `Cc1nc2nc3cc(Cl)ccc3nc2[nH]1`, for which the melting point is over 300 °C.

Take `CCC[C@H]1[C@@H](O)CC(=O)N1c1ccc(C#N)c(Cl)c1`: the melting point lay in the range of 143 to 146 °C.

For the molecule `Cc1cc(C)c2ccc(NC(=O)Nc3ccccc3CCc3cc(C(C)(C)C)c(O)c(C(C)(C)C)c3)nc2n1`, the melting point fell in the range of 235 to 237 °C.

Take `NC(=O)CN1C(=O)C[C@@H]2CCC[C@@H]21` (relative stereo): the melting point fell in the range of 142 to 144 °C.

For the molecule `O=c1[nH]nc(-c2ccc(OC3CCN(C4CCC4)CC3)cc2)c2c1CCC2`, the melting point fell in the range of 210 to 213 °C.

Molecule `CN(C)S(=O)(=O)c1cc(C(=O)O)cc(NCc2ccccc2)c1Oc1ccccc1` yielded a melting point of 205 to 206 °C.

`COc1ccc(Cl)cc1C1=NC(C)(C)CO1` yielded a melting point of 50 to 51 °C.

In turn, `CCn1ncnc1COc1nn2c(-c3ccccc3F)nncc2c1-c1ccsc1` came in with a melting point of 187 to 193 °C.

Regarding `COc1ccc(S(=O)(=O)C2(C(=O)O)CCCC2)cc1`, the melting point was in the range of 89 to 91 °C.

`CC#CCCn1ncc2c(N)c3c(nc21)CN(CCC)C3=O` came in with a melting point of 178 to 180 °C.

In turn, `O=C(O)c1cccc(OCc2ccc(Cl)cc2Cl)c1OCc1ccccc1` returned a melting point of 151 to 153 °C.

In turn, `O=C(O)c1cc(OCc2ccccc2)c(Cc2ccccc2)c(S(=O)(=O)Cl)c1` showed a melting point of 164 to 166 °C.

For the molecule `CCCCCCOc1ccc(C=[N+]([O-])CCCCCC[N+]([O-])=Cc2ccc(OCCCCCC)cc2)cc1`, the melting point was 80 °C.

The molecule `COc1ccc(-c2c(Cl)c(CN3C(=O)CCC3=O)nc3sc4c(c23)CCN(Cc2ccccc2)C4)cc1` displayed a melting point of 241 to 243 °C.

The molecule `CN(C)CCN(C)C(=O)Cc1ccc(NC(=O)OCc2ccccc2)cc1` registered a melting point of 109 to 110 °C.

The molecule `Cc1ccc(C)n1-c1cc(Br)c2ccc3[nH]c(=O)c(=O)[nH]c3c2c1` returned a melting point of over 270 °C.

In turn, `O=C1CCC(N2C=Nc3ccccc3C2)C(=O)N1` (centres undefined) had a melting point of 258 °C.

Consider `CNC(=O)C1CN(C(c2ccccc2)c2ccccc2)C1`, for which the melting point lay in the range of 103 to 107 °C.

Molecule `CC(C)(C)c1cc(C(=O)Oc2ccc(C(=O)O)cc2)cc(C(C)(C)C)c1O` came in with a melting point of 223 to 224 °C.

`CCCc1c(OCCCCc2ccc3cc(O)c(O)cc3c2)ccc(C(=O)O)c1O` came in with a melting point of 173 to 175 °C.

`O=C(O)c1nc2ccc(Oc3ccccc3)cc2cc1OCc1ccccc1` gave a melting point of 281 to 283 °C.

`CCOC(=O)c1c2ccc(Cl)cc2c(-c2ccccc2)n1CCN(CC)CC` returned a melting point of 75 to 77 °C.

`Cn1nc2c(-c3ccc(Cl)cc3Cl)cccc2c1C1=NCCO1` came in with a melting point of 162 to 167 °C.

In the case of `COC(=O)c1cc(Cl)c(Cl)c(-c2cc(C)no2)c1C`, the melting point is 76 to 77 °C.

In the case of `O=C1CCc2c(Br)cc([N+](=O)[O-])c(O)c21`, the melting point was in the range of 149 to 151 °C.

For `Nc1cc2c(cc1Br)-c1cc(Br)c(N)cc1S2(=O)=O`, the melting point was over 355 °C.

`CCc1ncc(CCCOc2c(C)cc(-c3noc(C)n3)cc2C)s1` returned a melting point of 43 to 45 °C.

In the case of `CCNC(=O)NC[C@H]1CN(c2ccc3c(c2)CCCc2cnoc2-3)C(=O)O1`, the melting point was in the range of 193 to 196 °C.

Consider `Cc1c(SCCCn2ccnc2)ccnc1CSc1ccncc1`, for which the melting point is 117 to 119 °C.

`Cn1c(-c2cccc(Cl)c2)cc(-c2cccc(Cl)c2)nc1=O` came in with a melting point of 178 to 181 °C.

As for `CCOC(=O)C1=C(Cl)/C(=N/OS(C)(=O)=O)CC(c2ccc(Cl)c(OC)c2F)N1` (centres undefined), the melting point lay in the range of 60 to 62 °C.

The molecule `O=C(NCCO)c1ccc(CCN2CCN(Cc3ccccc3Cl)CC2)cc1` showed a melting point of 121 to 122 °C.

As to `CCn1cc(C(=O)NCc2ccc(Cl)cc2)c(=O)c2cc(CCCO)sc21`, the melting point lay in the range of 144 to 146 °C.

Take `S=C1Nc2ccccc2N2CCN(Cc3ccccc3)CCN12`: the melting point is 125 to 127 °C.

As to `COc1nc(C)n2nc(SCc3ccccc3)nc2c1Cl`, the melting point fell in the range of 115 to 116 °C.

Consider `O=C1c2ccccc2C(=O)N1CC(=O)N1c2ccccc2N(Cc2ccccn2)C(=O)[C@H]2CCC[C@H]21` (relative stereo), for which the melting point was 227 to 229 °C.

In the case of `COC(=O)C1=C(C)NC(c2cnc(Cl)s2)=NC1c1ccc(F)cc1` (centres undefined), the melting point lay in the range of 175 to 178 °C.

`Cc1nccn2c(-c3ccnc(NCCC(C)(C)O)n3)c(-c3ccc(F)cc3F)nc12` yielded a melting point of 175 °C.

The molecule `COc1cccc(NC(=O)N(C)Cc2cccc3c2C(=O)N(C2CCC(=O)NC2=O)C3=O)c1` (centres undefined) came in with a melting point of 160 to 162 °C.

In the case of `O=C(O)c1cccc(NC(=O)[C@H](CO)NS(=O)(=O)c2ccc(Cl)cc2)c1`, the melting point lay within 220 to 224 °C.

The molecule `COC(=O)C(N)Cc1ccc(OCc2nc3ccc(OC)cc3n2C)cc1` (centres undefined) returned a melting point of 108 to 111 °C.

Regarding `Fc1ccc(Cn2cnc3c(-c4ccco4)nc(Cl)nc32)cc1`, the melting point lay within 152 to 155 °C.

Consider `CNC(=O)N(C)C(=O)Nc1ccccn1`, for which the melting point fell in the range of 112 to 115 °C.

In turn, `CC(C)c1cc2ncnn2nc1OCCOCCN1CCN(C(c2ccccc2)c2ccccc2)CC1` yielded a melting point of 119 to 120 °C.

`O=C(CC(=O)c1ccccc1O)c1cc(O)c(O)c([N+](=O)[O-])c1` registered a melting point of 251 to 252 °C.

Molecule `CNc1nc(-c2ccc3c(c2)CCC3)c(-c2cccnc2)s1` came in with a melting point of 169 to 170 °C.

On to `NCCC(Nc1ccccc1)c1ccccc1` (centres undefined), for which the melting point fell in the range of 104 to 105 °C.

As for `Nc1nc2ccccc2n1-c1cccc(-c2cccs2)c1`, the melting point lay in the range of 142 to 144 °C.

In the case of `O=C(Nc1ccc(OCCCN2CCc3ccccc3C2)cc1)c1cccc2c(=O)c3ccccc3[nH]c12`, the melting point was found to be 182 °C.

The molecule `CCOC(=O)c1nc[nH]c1-c1ccccc1` registered a melting point of 203 to 205 °C.

`COc1ccc2c(c1)c1c3c(c(-c4ccccc4Cl)cc1n2CCC(=O)NS(C)(=O)=O)C(=O)NC3=O` came in with a melting point of 293 to 295 °C.

Consider `O=C(O)c1ccc(C23CC4CC(C2)CC(c2ccc(C(=O)O)cc2)(C4)C3)cc1`, for which the melting point fell in the range of 304 to 306 °C.

Molecule `CCCc1oc(C)cc(=O)c1C(=O)Nc1ccccc1` showed a melting point of 133 to 134 °C.

As to `N#Cc1c2ccccc2c(-c2cc(Br)c(O[C@@H](Cc3ccccc3)C(=O)O)c(Br)c2)c2c1sc1ccccc12`, the melting point was 176 to 178 °C.

`CCOC(=O)CCNC(=O)Nc1cc(-c2ccc3cc(NS(C)(=O)=O)ccc3c2)c(OC)c(C(C)(C)C)c1` gave a melting point of over 300 °C.

On to `O=C(O)[C@@H]1CCCN1C(=O)C1CCC1S` (some centres undefined), for which the melting point lay within 145 to 146 °C.

With `COc1ccc(N=C(NC(=S)NCCO)c2ccccc2)cc1`, the melting point lay within 141 to 142 °C.

Molecule `CC(=O)Nc1ncc(-c2ccncc2)cn1` registered a melting point of 261 to 264 °C.

Regarding `CC(=O)Nc1nc(-c2cccnc2)c(-c2ccccc2)s1`, the melting point lay in the range of 264 to 267 °C.

In turn, `O=C(c1ccccc1Cl)c1ccccc1[N+](=O)[O-]` yielded a melting point of 76 to 79 °C.

`O=C(CCCBr)N1CC(c2ccc(Cl)cc2)Sc2ccccc21` (centres undefined): the melting point was 91 to 92 °C.

For the origin of these results see a melting point compilation (Tetko et al.; mined from patent text by program, amines drawn as free bases though some values may be those of a salt).
